Columns and labels:
hM4 receptors = target: T1, hM4 receptors (Homo sapiens, UniProt P08173); test: Human M4 PAM pERK assay; type: cell-based; details: PAM mode
T1 construct: expressed in transfected cells; host or cells: CHO cells
T1 sequence (P08173 1-479): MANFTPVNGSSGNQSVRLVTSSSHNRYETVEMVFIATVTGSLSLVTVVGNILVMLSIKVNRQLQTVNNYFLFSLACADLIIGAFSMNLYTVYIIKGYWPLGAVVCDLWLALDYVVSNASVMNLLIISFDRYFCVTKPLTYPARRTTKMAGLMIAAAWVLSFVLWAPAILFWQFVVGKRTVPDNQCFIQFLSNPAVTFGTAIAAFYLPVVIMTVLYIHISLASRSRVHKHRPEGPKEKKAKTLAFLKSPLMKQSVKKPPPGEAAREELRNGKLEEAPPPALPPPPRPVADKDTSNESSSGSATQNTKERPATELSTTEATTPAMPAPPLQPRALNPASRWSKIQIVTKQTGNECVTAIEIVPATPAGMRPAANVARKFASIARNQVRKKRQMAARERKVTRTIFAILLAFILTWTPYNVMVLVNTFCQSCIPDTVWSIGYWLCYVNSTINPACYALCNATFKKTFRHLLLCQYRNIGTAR
Description: (§1) Chinese hamster ovary (CHO) cells expressing either hM4 or rM4 receptors were frozen in assay ready vials (5×10^6 cells/vial) after bulking-up in culture. The day before an assay, vial(s) were thawed and cells seeded in 384 well white proxiplates at 1000/well for hM4 cells and at 2000/well for rM4 cells, in 10 μL of growth media (Hams/F12 with glutamax and 10% FCS) and incubated overnight at 37° C./5% CO2.
(§2) On the following morning, the growth media was removed by ‘flicking out’ over a bin, patting the inverted plate onto tissue, and then replacing with 10 μL of wash media (Hams/F12 with glutamax and 8 mM HEPES, NB: serum free). Then, the wash media was removed in the same way and replaced with 8 μL/well of the serum free media. Plates were then re-incubated for a further 4 hours at 37° C./5% CO2.
(§3) Compounds for testing were solubilized to 10 mM in DMSO and compound addition plates, consisting of ten-point concentration response curves (CRC) in duplicate points (10 μM top concentration, […]), were prepared by acoustic dispensing and the compound management group.
(§4) After the 4-hour incubation in serum free media, a 4 μL aliquot of the 3× compound solution containing an EC20 of acetylcholine (10 nM final concentration) was added to the cell plate using a 384 well plate to plate transfer. Then, the plate lid was replaced, and the cells incubated for 5 mins at 37° C./5% CO2. Following this final incubation, all cellular processes were stopped by the addition of 4 μL/well of lysis and blocking buffer and plates were incubated for 30 minutes at RT on an orbital shaker (gentle setting). Then, a final addition of 4 μL/well of antibody detection mix, containing both the Europium-Cryptate (donor) and d2 (acceptor) tagged detection components, was added followed by a further 2-hour incubation at RT, and then the plate was read using a TR-FRET (time resolved fluorescence resonance energy transfer) based protocol.

rM4 receptors = target: T2, rM4 receptors (Rattus norvegicus, UniProt P08485); test: Rat M4 PAM pERK assay; type: cell-based; details: PAM mode
T2 construct: expressed in transfected cells; host or cells: CHO cells
T2 sequence (P08485 1-478): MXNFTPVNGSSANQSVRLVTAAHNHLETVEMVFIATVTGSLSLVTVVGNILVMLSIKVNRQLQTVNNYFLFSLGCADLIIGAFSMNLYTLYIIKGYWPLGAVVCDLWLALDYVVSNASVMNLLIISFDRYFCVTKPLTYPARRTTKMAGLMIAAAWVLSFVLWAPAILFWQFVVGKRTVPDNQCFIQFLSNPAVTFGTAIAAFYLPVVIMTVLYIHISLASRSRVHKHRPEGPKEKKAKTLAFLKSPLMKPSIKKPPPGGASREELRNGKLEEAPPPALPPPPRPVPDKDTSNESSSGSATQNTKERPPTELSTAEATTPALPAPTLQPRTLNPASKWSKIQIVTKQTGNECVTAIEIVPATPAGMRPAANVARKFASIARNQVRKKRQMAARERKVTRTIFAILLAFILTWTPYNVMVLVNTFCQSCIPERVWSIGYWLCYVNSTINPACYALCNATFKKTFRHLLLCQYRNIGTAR
Description: as §1, §2, §3, §4

human M4 receptor = target: T3, human M4 receptor (Homo sapiens, UniProt P08173); test: M4 GTPγS PAM assay; type: biochemical; details: CHO-K1 membranes expressing human M4, with EC20 acetylcholine (40 nM)
T3 construct: expressed in transfected cells
T3 sequence (P08173 1-479): T1 sequence (P08173 1-479)
Description: The M4 GTPγS PAM method was used. Membranes were prepared for GTPgS binding assays from CHO-K1 cells stably expressing human M4 receptor. Briefly, cells were grown in 5-layer cell culture flasks. Cells were washed with 50 mL of PBS and then dissociated with 0.05% trypsin. Dissociated cells were then collected by centrifugation at 650×g for 8 minutes at 4° C. Pellets were washed again in PBS by centrifugation and resuspended in 30 mL of 20 mM HEPES, 10 mM EDTA, pH 7.4. After sitting on ice for 30 min, membranes were collected by centrifugation at 50000×g for 15′ at 4° C., resuspended in 30 mL of 20 mM HEPES, 0.1 mM EDTA, pH 7.4 and collected again by centrifugation. Pellets were then washed twice by centrifugation in 30 mL of 20 mM HEPES, pH 7.4, and stored at −80° C. until the day of the assay. On the day of the assay, pellets were thawed on ice and resuspended in 1 mL of 20 mM HEPES, pH 7.4, 10 mM MgCl2, 100 mM NaCl using dounce homogenization. Membrane protein concentration is determined by BCA protein assay (Promega, Madison, WI) according to Promega guidelines.
On the day of the assay, serial dilutions of test PAM compounds were brought up in assay buffer (20 mM HEPES, 10 mM MgCl2, 100 mM NaCl) at 4× final assay concentration. […] of membrane homogenates (containing […] of membrane protein) were prepared in assay buffer supplemented with GDP at 4× final assay concentration (final assay concentration of GDP is 5 uM for M2 and 0.1 uM for M4) and dispensed into 96 well polypropylene, U-bottom Greiner plates. […] of vehicle or test PAM compound at 4× of final assay concentration diluted in the assay buffer were added to membrane and plates are incubated for 10-15 minutes at room temperature with gentle shaking. Then, […] of EC20 acetylcholine in assay buffer at 4× final assay concentration was added to assay plates (EC20 final assay concentrations was 40 nM for human M4).
Plates were then incubated, with shaking, for an additional 10-15 minutes. 25 mL of 0.4 nM ^35S-GTP (Perkin Elmer, Waltham, MA) in assay buffer was added to assay mixtures. The binding reaction is left on the shaker for 1 hour at room temperature. Membranes in assay reactions were then transferred to GF/C filter plates (Unifilter, Perkin Elmer) and washed three times using a FilterMate Harvester (Perkin Elmer) with cold assay buffer containing no GDP. Filter plates were then dried at 40° C. overnight followed by the addition of […] of Beta Plate Scintillation liquid. Plates are top and bottom sealed before being read on TopCount scintillation counter (Perkin Elmer, Waltham, MA).

EC50 (hM4 receptors) [nM] | EC50 (rM4 receptors) [nM] | EC50 (human M4 receptor) [nM] | Compound
500 to 2000 | > 2000 | > 2000 | Cc1c2c(n(C)c(=O)c1Cl)CN(C(=O)c1cn(CC(C)C)cn1)C2 [Compound I-19]
100 to 500 | > 2000 | > 2000 | Cc1c2c(n(C)c(=O)c1Cl)CN(C(=O)c1ccc(C(F)(F)F)cn1)C2 [Compound I-45]
< 100 | > 2000 | 500 to 2000 | Cc1c2c(n(C)c(=O)c1Cl)CN(C(=O)c1cnc(CC3CC3(F)F)s1)C2 (stereo not drawn) [Compound I-66]
> 2000 | > 2000 | > 2000 | COc1c2c(n(C)c(=O)c1Cl)CN(C(=O)c1cnn(C(F)(F)F)c1)C2C (single isomer, unassigned) [Compound I-75]
100 to 500 | 500 to 2000 | 500 to 2000 | Cc1cc(=O)n(C)c2c1C(C)N(C(=O)c1ccc3nc(C4CC4)sc3c1)C2 (single isomer, unassigned) [Compound I-99]
500 to 2000 | > 2000 | > 2000 | Cc1c2c(n(CC(F)(F)F)c(=O)c1Cl)CN(C(=O)c1cnc(CC3CC3)s1)C2 [Compound I-71]
100 to 500 | > 2000 | > 2000 | Cc1c2c(n(C)c(=O)c1Cl)CN(C(=O)c1cc(C3CC3)on1)C2 [Compound I-6]
500 to 2000 | > 2000 | > 2000 | COc1c2c(n(C)c(=O)c1C)CN(C(=O)c1cnn(C(F)(F)F)c1)C2C (single isomer, unassigned) [Compound I-84]
100 to 500 | 100 to 500 | 500 to 2000 | Cc1c2c(n(C)c(=O)c1Cl)CN(C(=O)c1ccc3nc(C4CC4)sc3c1)C2 [Compound I-52, 3-Chloro-6-(2-cyclopropylbenzo[d]thiazole-6-carbonyl)-1,4-dimethyl-1,5,6,7-tetrahydro-2H-pyrrolo[3,4-b]pyridin-2-one]
> 2000 | > 2000 | > 2000 | COc1cc(=O)n(C)c2c1C(C)N(C(=O)c1cnn(C(F)(F)F)c1)C2 (single isomer, unassigned) [Compound I-81]
100 to 500 | > 2000 | > 2000 | COc1cc(=O)n(C)c2c1C(C)N(C(=O)c1cnn(C(F)(F)F)c1)C2 (single isomer, unassigned) [Compound I-80]
500 to 2000 | > 2000 | > 2000 | Cc1c2c(n(C)c(=O)c1Cl)C(C)N(C(=O)c1cnn(C(F)(F)F)c1)C2 (stereo not drawn) [Compound I-109]
100 to 500 | > 2000 | 500 to 2000 | Cc1cc(=O)n(C)c2c1C(C)N(C(=O)c1cnc(C(F)(F)F)s1)C2 (single isomer, unassigned) [Compound I-95]
500 to 2000 | > 2000 | > 2000 | Cc1c2c(n(C)c(=O)c1Cl)CN(C(=O)c1cccc(C(F)(F)F)c1)C2 [Compound I-40]
< 100 | 500 to 2000 | 100 to 500 | COc1c2c(n(C)c(=O)c1C)CN(C(=O)c1cnn(C(F)(F)F)c1)C2C (single isomer, unassigned) [Compound I-83]
100 to 500 | 500 to 2000 | > 2000 | Cc1cc(=O)n(C)c2c1[C@@H](C)N(C(=O)c1ccc3nc(C4CC4)sc3c1)C2 [Compound I-103]
500 to 2000 | > 2000 | 500 to 2000 | COc1cc(=O)n(C)c2c1C(C)N(C(=O)c1cnn(C(F)(F)F)c1)C2 (stereo not drawn) [Compound I-79, 4-Methoxy-1,5-dimethyl-6-(1-(trifluoromethyl)-1H-pyrazole-4-carbonyl)-1,5,6,7-tetrahydro-2H-pyrrolo[3,4-b]pyridin-2-one]
500 to 2000 | > 2000 | > 2000 | Cc1c2c(n(C)c(=O)c1Cl)CN(C(=O)c1ccn(C)n1)C2 [Compound I-3]
> 2000 | > 2000 | > 2000 | Cc1cc(=O)n(C)c2c1C(C)N(C(=O)c1cnc(C(F)(F)F)s1)C2 (single isomer, unassigned) [Compound I-94]
500 to 2000 | > 2000 | > 2000 | Cc1c2c(n(C)c(=O)c1Cl)CN(C(=O)c1cn3c(n1)CCCC3)C2 [Compound I-24]
> 2000 | > 2000 | > 2000 | Cc1cc(=O)n(C)c2c1[C@H](C)N(C(=O)c1ccc3nc(C4CC4)sc3c1)C2 [Compound I-102]
> 2000 | > 2000 | > 2000 | Cc1cc(=O)n(C)c2c1C(C)N(C(=O)c1ccc3nc(C4CC4)sc3c1)C2 (single isomer, unassigned) [Compound I-98]
100 to 500 | > 2000 | 500 to 2000 | Cc1coc(C(=O)N2Cc3c(C)c(Cl)c(=O)n(C)c3C2)n1 [Compound I-22]
< 100 | 500 to 2000 | 500 to 2000 | Cc1ncc(C(=O)N2Cc3c(C)c(Cl)c(=O)n(C)c3C2)s1 [Compound I-9]
100 to 500 | 500 to 2000 | 100 to 500 | COc1c2c(n(C)c(=O)c1Cl)CN(C(=O)c1cnn(C(F)(F)F)c1)C2C (stereo not drawn) [Compound I-73, 3-Chloro-4-methoxy-1,5-dimethyl-6-(1-(trifluoromethyl)-1H-pyrazole-4-carbonyl)-1,5,6,7-tetrahydro-2H-pyrrolo[3,4-b]pyridin-2-one]
< 100 | 500 to 2000 | 100 to 500 | Cc1c2c(n(C)c(=O)c1Cl)CN(C(=O)c1cnc(CC3CC3)s1)C2 [Compound I-28]
